Measured values from patent publication US8183351B2, “Avermectin derivatives” (Bayer Cropscience AG, priority 2006, dated 2012).

How the values were obtained:
Type in all cases: in vivo
Lucilia cuprina larvae = experiment: Lucilia cuprina test (LUCICU); conditions: treated horsemeat
Experimental: Lucilia cuprina Test (LUCICU)
Description for Examples A and B
(§1) • Solvent: Dimethyl sulphoxide
To produce a suitable preparation of active compound, 1 part by weight of active compound is mixed with the stated amount of water and the concentrate is diluted with water to the desired concentration.
Containers containing horsemeat treated with the active compound preparation of the desired concentration are populated with Lucilia cuprina larvae.
After the desired period of time, the kill in % is determined. 100% means that all larvae have been killed; 0% means that none of the larvae have been killed.
(§2) In this test, for example, the following compounds of the preparation examples show good activity: see table

adult Musca domestica = experiment: Musca domestica test (MUSCDO); conditions: Example C, treated sponge
Experimental: Musca domestica Test (MUSCDO)
as §1
To produce a suitable preparation of active compound, 1 part by weight of active compound is mixed with the stated amount of water, and the concentrate is diluted with water to the desired concentration.
Containers containing a sponge treated with the preparation of active compound of the desired concentration are populated with adult Musca domestica.
After the desired period of time, the kill in % is determined. 100% means that all flies have been killed; 0% means that none of the flies have been killed.
as §2

[1] = tested on: larvae of the mustard beetle (Phaedon cochleariae); experiment: Phaedon test (PHAECO spray treatment); conditions: 4 ppm active compound, sprayed Chinese cabbage discs
Experimental: Phaedon Test (PHAECO Spray Treatment)
• Solvents: 78 parts by weight of acetone • 1.5 parts by weight of dimethylformamide • Emulsifier: 0.5 part by weight of alkylaryl polyglyycol ether
After the desired period of time, the effect in % is determined. 100% means that all beetle larvae have been killed; 0% means that none of the beetle larvae have been killed.

[2] = tested on: unfed adult fleas (Ctenocephalides felis); experiment: Ctenocephalides felis; oral (CTECFE); conditions: Example J; 4 ppm active compound in citrated cattle blood, oral uptake
Experimental: Ctenocephalides felis; Oral (CTECFE)
as §1
To produce a suitable preparation of active compound, 1 part by weight of active compound is mixed with the stated amount of solvent. Part of the concentrate is diluted with citrated cattle blood, and the desired concentration is prepared.
20 unfed adult fleas (Ctenocephalides felis) are placed into a chamber whose top and bottom ends are closed with gauze. A metal cylinder whose bottom end is closed with parafilm is placed onto the chamber. The cylinder contains the blood/active compound preparation, which can be taken up by the fleas through the parafilm membrane. The blood is warmed to 37° C., but the flea chamber is at room temperature.
After the desired period of time, the kill in % is determined. 100% means that all fleas have been killed; 0% means that none of the fleas have been killed.
as §2

[3] = tested on: caterpillars of the army worm (Spodoptera frugiperda); experiment: Spodoptera frugiperda test (SPODFR spray treatment); conditions: Example I; 4 ppm active compound; sprayed maize leaf discs
Experimental: Spodoptera frugiperda Test (SPODFR Spray Treatment)
• Solvents: 78.0 parts by weight of acetone • 1.5 parts by weight of dimethylformamide • Emulsifier: 0.5 part by weight of alkylaryl polyglyycol ether
After the desired period of time, the effect in % is determined. 100% means that all caterpillars have been killed; 0% means that none of the caterpillars have been killed.

[4] = Example A, 0.8 ppm active compound
[5] = Example B, 0.16 ppm active compound

With `CC[C@H](C)[C@H]1OC2(C=C[C@@H]1C)C[C@@H]1C[C@@H](C/C=C(\C)[C@@H](OC3CC(OC)C(OC(=O)Cc4nonc4C)C(C)O3)[C@@H](C)/C=C/C=C3\CO[C@@H]4[C@H](O)C(C)=CC(C(=O)O1)[C@]34O)O2` (stereo partly drawn) [Example 25] the “Kill rate in % after 2 days” value (Lucilia cuprina larvae; [4]) was 95%.
For `CC[C@H](C)[C@H]1OC2(C=C[C@@H]1C)C[C@@H]1C[C@@H](C/C=C(\C)[C@@H](OC3CC(OC)C(OC(=O)Cc4cccs4)C(C)O3)[C@@H](C)/C=C/C=C3\CO[C@@H]4[C@H](O)C(C)=CC(C(=O)O1)[C@]34O)O2` (stereo partly drawn) [Example 13], the “Kill rate in % after 2 days” value (adult Musca domestica; 0.8 ppm active compound) was 50%.
With `CCC(C)C1OC2(C=CC1C)CC1CC(CC=C(C)C(OC3CC(OC)C(OC(=O)C(C)NC(C)=O)C(C)O3)C(C)C=CC=C3COC4C(O)C(C)=CC(C(=O)O1)C34O)O2` (mixture of isomers) [Example 54] the “Kill rate in % after 2 days” value (Lucilia cuprina larvae; [4]) was 80% and the “Kill rate in % after 7 days” value ([1]; Example G) was 100%.
`CC[C@H](C)[C@H]1OC2(C=C[C@@H]1C)C[C@@H]1C[C@@H](C/C=C(\C)[C@@H](OC3CC(OC)C(OC(=O)C(C)C)C(C)O3)[C@@H](C)/C=C/C=C3\CO[C@@H]4[C@H](O)C(C)=CC(C(=O)O1)[C@]34O)O2` (stereo partly drawn) [Example 98, 4′-O-Isobutyryl-avermectin B1 monosaccharide] was tested, and the “Kill rate in % after 2 days” value (Lucilia cuprina larvae; [4]) was 95%.
With `CC[C@H](C)[C@H]1OC2(C=C[C@@H]1C)C[C@@H]1C[C@@H](C/C=C(\C)[C@@H](OC3CC(OC)C(OC(=O)C4(C)CC4)C(C)O3)[C@@H](C)/C=C/C=C3\CO[C@@H]4[C@H](O)C(C)=CC(C(=O)O1)[C@]34O)O2` (stereo partly drawn) [Example 15] the “Kill rate in % after 2 days” value (Lucilia cuprina larvae; [4]) was 100%.
With `CCC(C)C1OC2(C=CC1C)CC1CC(CC=C(C)C(OC3CC(OC)C(OC(=O)C(=NOC)c4ccc(Cl)cc4Cl)C(C)O3)C(C)C=CC=C3COC4C(O)C(C)=CC(C(=O)O1)C34O)O2` (stereo not drawn) [Example 90] the “Kill rate in % after 2 days” value (adult Musca domestica; 100 ppm active compound) was 100%.
`CCC(=O)OC1C(C)OC(O[C@@H]2/C(C)=C/C[C@@H]3C[C@@H](CC4(C=C[C@H](C)[C@@H]([C@@H](C)CC)O4)O3)OC(=O)C3C=C(C)[C@@H](O)[C@H]4OC/C(=C\C=C\[C@@H]2C)[C@@]34O)CC1OC` (stereo partly drawn) [Example 6] was tested, and the “Kill rate in % after 2 days” value (Lucilia cuprina larvae; [4]) was 98%.
In the case of `CC[C@H](C)[C@H]1OC2(C=C[C@@H]1C)C[C@@H]1C[C@@H](C/C=C(\C)[C@@H](OC3CC(OC)C(OC(=O)C(C)(C)n4nc(C)cc4C)C(C)O3)[C@@H](C)/C=C/C=C3\CO[C@@H]4[C@H](O)C(C)=CC(C(=O)O1)[C@]34O)O2` (stereo partly drawn) [Example 19], the “Kill rate in % after 2 days” value (Lucilia cuprina larvae; [5]) was 100%.
With `CCC(C)C1OC2(C=CC1C)CC1CC(CC=C(C)C(OC3CC(OC)C(OC(=O)C(C)n4nc(OC)n(C)c4=O)C(C)O3)C(C)C=CC=C3COC4C(O)C(C)=CC(C(=O)O1)C34O)O2` (mixture of isomers) [Example 100] the “Kill rate in % after 2 days” value (Lucilia cuprina larvae; [4]) was 100%.
With `CC[C@H](C)[C@H]1OC2(C=C[C@@H]1C)C[C@@H]1C[C@@H](C/C=C(\C)[C@@H](OC3CC(OC)C(OC(=O)CC(C)C)C(C)O3)[C@@H](C)/C=C/C=C3\CO[C@@H]4[C@H](O)C(C)=CC(C(=O)O1)[C@]34O)O2` (stereo partly drawn) [Example 4] the “Kill rate in % after 2 days” value (Lucilia cuprina larvae; [4]) was 100%.
In the case of `CC[C@H](C)[C@H]1OC2(C=C[C@@H]1C)C[C@@H]1C[C@@H](C/C=C(\C)[C@@H](OC3CC(OC)C(OC(=O)Cc4c(C)nn(C)c4C)C(C)O3)[C@@H](C)/C=C/C=C3\CO[C@@H]4[C@H](O)C(C)=CC(C(=O)O1)[C@]34O)O2` (stereo partly drawn) [Example 26], the “Kill rate in % after 2 days” value (Lucilia cuprina larvae; [4]) was 100%.
For `CCC(C)C(=O)OC1C(C)OC(O[C@@H]2/C(C)=C/C[C@@H]3C[C@@H](CC4(C=C[C@H](C)[C@@H]([C@@H](C)CC)O4)O3)OC(=O)C3C=C(C)[C@@H](O)[C@H]4OC/C(=C\C=C\[C@@H]2C)[C@@]34O)CC1OC` (stereo partly drawn) [Example 9], the “Kill rate in % after 2 days” value (Lucilia cuprina larvae; [4]) was 100%.
With `CC[C@H](C)[C@H]1OC2(C=C[C@@H]1C)C[C@@H]1C[C@@H](C/C=C(\C)[C@@H](OC3CC(OC)C(OC(=O)Cc4ccsc4)C(C)O3)[C@@H](C)/C=C/C=C3\CO[C@@H]4[C@H](O)C(C)=CC(C(=O)O1)[C@]34O)O2` (stereo partly drawn) [Example 12] the “Kill rate in % after 2 days” value (Lucilia cuprina larvae; [4]) was 100%.
For `CC[C@H](C)[C@H]1OC2(C=C[C@@H]1C)C[C@@H]1C[C@@H](C/C=C(\C)[C@@H](OC3CC(OC)C(OC(=O)C4CCCC4)C(C)O3)[C@@H](C)/C=C/C=C3\CO[C@@H]4[C@H](O)C(C)=CC(C(=O)O1)[C@]34O)O2` (stereo partly drawn) [Example 16], the “Kill rate in % after 2 days” value (Lucilia cuprina larvae; [4]) was 100%.
For `CC[C@H](C)[C@H]1OC2(C=C[C@@H]1C)C[C@@H]1C[C@@H](C/C=C(\C)[C@@H](OC3CC(OC)C(OC(=O)C(C)N4CCOCC4)C(C)O3)[C@@H](C)/C=C/C=C3\CO[C@@H]4[C@H](O)C(C)=CC(C(=O)O1)[C@]34O)O2` (stereo partly drawn) [Example 52, 4′-O-(2-morpholin-4-ylpropanoyl)-avermectin B1 monosaccharide], the “Kill rate in % after 2 days” value [2] was 50%, the “Kill rate in % after 2 days” value (Lucilia cuprina larvae; [4]) was 100% and the “Kill rate in % after 7 days” value ([1]; Example G) was 100%. For the same molecule, the “Kill rate in % after 5 days” value [3] was 100%.
With `CC[C@H](C)[C@H]1OC2(C=C[C@@H]1C)C[C@@H]1C[C@@H](C/C=C(\C)[C@@H](OC3CC(OC)C(OC(=O)C(C)(C)C)C(C)O3)[C@@H](C)/C=C/C=C3\CO[C@@H]4[C@H](O)C(C)=CC(C(=O)O1)[C@]34O)O2` (stereo partly drawn) [Example 5] the “Kill rate in % after 2 days” value (Lucilia cuprina larvae; [4]) was 100%.
With `CC[C@H](C)[C@H]1OC2(CC[C@@H]1C)C[C@@H]1C[C@@H](C/C=C(\C)[C@@H](OC3CC(OC)C(OC(=O)Cn4ccnn4)C(C)O3)[C@@H](C)/C=C/C=C3\CO[C@@H]4[C@H](O)C(C)=CC(C(=O)O1)[C@]34O)O2` (stereo partly drawn) [Example 18] the “Kill rate in % after 2 days” value (Lucilia cuprina larvae; [5]) was 100% and the “Kill rate in % after 7 days” value ([1]; Example G) was 100%.
For `CC[C@H](C)[C@H]1OC2(C=C[C@@H]1C)C[C@@H]1C[C@@H](C/C=C(\C)[C@@H](OC3CC(OC)C(OC(=O)CN(C)C(=O)OC(C)(C)C)C(C)O3)[C@@H](C)/C=C/C=C3\CO[C@@H]4[C@H](O)C(C)=CC(C(=O)O1)[C@]34O)O2` (stereo partly drawn) [Example 55], the “Kill rate in % after 2 days” value (adult Musca domestica; 100 ppm active compound) was 90% and the “Kill rate in % after 2 days” value (Lucilia cuprina larvae; [4]) was 90%.
With `CC[C@H](C)[C@H]1OC2(C=C[C@@H]1C)C[C@@H]1C[C@@H](C/C=C(\C)[C@@H](OC3CC(OC)C(OC(=O)C4CC4)C(C)O3)[C@@H](C)/C=C/C=C3\CO[C@@H]4[C@H](O)C(C)=CC(C(=O)O1)[C@]34O)O2` (stereo partly drawn) [Example 1, 4′-O-(cyclopropylcarbonyl)-avermectin B1 monosaccharide] the “Kill rate in % after 2 days” value (Lucilia cuprina larvae; [4]) was 100% and the “Kill rate in % after 7 days” value ([1]; Example D) was 90%.
`CC[C@H](C)[C@H]1OC2(C=C[C@@H]1C)C[C@@H]1C[C@@H](C/C=C(\C)[C@@H](OC3CC(OC)C(OC(=O)C(C)n4cccn4)C(C)O3)[C@@H](C)/C=C/C=C3\CO[C@@H]4[C@H](O)C(C)=CC(C(=O)O1)[C@]34O)O2` (stereo partly drawn) [Example 48] was tested, and the “Kill rate in % after 2 days” value (adult Musca domestica; 100 ppm active compound) was 100%, the “Kill rate in % after 2 days” value (Lucilia cuprina larvae; [4]) was 100% and the “Kill rate in % after 7 days” value ([1]; Example G) was 100%. For the same molecule, the “Kill rate in % after 5 days” value [3] was 100%.
For `CC[C@H](C)[C@H]1OC2(C=C[C@@H]1C)C[C@@H]1C[C@@H](C/C=C(\C)[C@@H](OC3CC(OC)C(OC(=O)Cc4sccc4C)C(C)O3)[C@@H](C)/C=C/C=C3\CO[C@@H]4[C@H](O)C(C)=CC(C(=O)O1)[C@]34O)O2` (stereo partly drawn) [Example 27], the “Kill rate in % after 2 days” value (Lucilia cuprina larvae; [4]) was 100%.
For `CCC(C)C1OC2(C=CC1C)CC1CC(CC=C(C)C(OC3CC(OC)C(OC(=O)C4C(C=C(Cl)Cl)C4(C)C)C(C)O3)C(C)C=CC=C3COC4C(O)C(C)=CC(C(=O)O1)C34O)O2` (stereo not drawn) [Example 89], the “Kill rate in % after 2 days” value (adult Musca domestica; 100 ppm active compound) was 100%.
In the case of `CC[C@H](C)[C@H]1OC2(C=C[C@@H]1C)C[C@@H]1C[C@@H](C/C=C(\C)[C@@H](OC3CC(OC)C(OC(=O)Cc4ccc(Cl)cc4)C(C)O3)[C@@H](C)/C=C/C=C3\CO[C@@H]4[C@H](O)C(C)=CC(C(=O)O1)[C@]34O)O2` (stereo partly drawn) [Example 94], the “Kill rate in % after 2 days” value (adult Musca domestica; 100 ppm active compound) was 80%.
In the case of `CC[C@H](C)[C@H]1OC2(C=C[C@@H]1C)C[C@@H]1C[C@@H](C/C=C(\C)[C@@H](OC3CC(OC)C(OC(=O)C(C)(C)n4cncn4)C(C)O3)[C@@H](C)/C=C/C=C3\CO[C@@H]4[C@H](O)C(C)=CC(C(=O)O1)[C@]34O)O2` (stereo partly drawn) [Example 20], the “Kill rate in % after 2 days” value (Lucilia cuprina larvae; [4]) was 100% and the “Kill rate in % after 7 days” value ([1]; Example D) was 80%.
With `CC[C@H](C)[C@H]1OC2(C=C[C@@H]1C)C[C@@H]1C[C@@H](C/C=C(\C)[C@@H](OC3CC(OC)C(OC(=O)Cc4nc(-c5cccs5)sc4C)C(C)O3)[C@@H](C)/C=C/C=C3\CO[C@@H]4[C@H](O)C(C)=CC(C(=O)O1)[C@]34O)O2` (stereo partly drawn) [Example 91] the “Kill rate in % after 2 days” value (adult Musca domestica; 100 ppm active compound) was 90%.
